Measured values published in paper PMC9181698 (International Journal of Molecular Sciences, 2022).
Entries after “also recorded” stand apart in the source; their conditions may differ. Residues, ends and D or L forms follow the SMILES beside them.

Experiments:
[1] = molecular target: T1, ACE2–RBD interaction (wt SARS-CoV-2 spike protein RBD-Fc / His-tagged hACE2) (Severe acute respiratory syndrome coronavirus 2, UniProt P0DTC2); experiment: SARS-CoV-2 spike protein RBD–hACE2 inhibition assay (ELISA), wt RBD; format: biochemical; details: individual helices of LCB1
T1 construct: SARS-CoV-2 spike protein RBD-Fc fusion protein; Fc fusion; purchased Sino Biological

[2] = tested on: neutrophil elastase; experiment: neutrophil elastase, 20–22 U/mg, Abcam, diluted to 5.5 µg/mL in Tris buffer 0.1 M + NaCl 0.5 M pH 7.8; details: 37 °C, up to 60 min
[3] = tested on: pepsin; experiment: pepsin, Ph.Eur. grade, Carl Roth GmbH, diluted to 5.5 µg/mL in TFA 10 mM; details: 37 °C, up to 60 min
[4] = molecular target: T2, neutrophil elastase (Homo sapiens, UniProt P08246); format: in vitro ADME; details: neutrophil elastase 5.5 µg/mL in Tris buffer 0.1 M + NaCl 0.5 M pH 7.8, enzyme pre-incubated 15 min at 37 °C, peptide 100 µM, 60 min, LC-MS (Figure 4C,D)
T2 construct: purchased Abcam
T2 sequence (P08246 30-267): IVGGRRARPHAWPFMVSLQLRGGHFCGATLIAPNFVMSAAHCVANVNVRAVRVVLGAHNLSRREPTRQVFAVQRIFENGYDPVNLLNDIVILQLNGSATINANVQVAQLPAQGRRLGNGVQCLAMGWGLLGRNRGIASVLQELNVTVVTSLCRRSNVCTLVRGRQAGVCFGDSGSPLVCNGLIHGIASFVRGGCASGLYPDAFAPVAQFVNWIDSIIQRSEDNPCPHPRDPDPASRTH
Protocol: (§1) The enzymes (pepsin, Ph.Eur. grade, Carl Roth GmbH, and neutrophil elastase, 20–22 U/mg, Abcam, respectively) were diluted to 5.5 µg/mL in TFA 10 mM (pepsin) or Tris buffer 0.1 M + NaCl 0.5 M pH 7.8 (neutrophil elastase) and pre-incubated for 15 min at 37 °C. Peptides were added at 100 µM and incubated at 37 °C. A sample of 40 µL was taken after 60 min of incubation and the reaction was stopped by adding 5 µL sodium carbonate solution (1 M, pepsin) and 5 µL TFA (neutrophil elastase), respectively. After 10 min, 60 µL acetonitrile/water 50:50 containing 1% TFA were added, and the resulting solution was analyzed by LC-MS (conditions: Phenomenex Kinetex 2.6 μm C18 100 Å column, 50 × 2.1 mm, flow rate 0.55 mL/min, gradient of acetonitrile in H2O (both containing 0.1% TFA, 20–60% over 20 min)).

[5] = molecular target: T3, pepsin (Sus scrofa, UniProt P00791); format: in vitro ADME; details: pepsin 5.5 µg/mL in TFA 10 mM, enzyme pre-incubated 15 min at 37 °C, peptide 100 µM, 60 min, LC-MS (Figure 4A,B)
T3 construct: purchased Carl Roth GmbH
T3 sequence (P00791 60-385): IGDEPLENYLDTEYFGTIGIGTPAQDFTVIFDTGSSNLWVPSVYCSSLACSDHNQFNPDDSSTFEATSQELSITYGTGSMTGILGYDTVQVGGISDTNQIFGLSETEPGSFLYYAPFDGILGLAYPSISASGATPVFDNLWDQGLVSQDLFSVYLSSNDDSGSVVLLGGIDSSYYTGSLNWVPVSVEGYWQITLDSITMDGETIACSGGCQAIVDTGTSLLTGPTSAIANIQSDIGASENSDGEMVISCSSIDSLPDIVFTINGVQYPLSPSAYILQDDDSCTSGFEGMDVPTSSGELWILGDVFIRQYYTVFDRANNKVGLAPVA
Protocol: as §1

Row | Compound | Inhibitory activity on the ACE2–RBD interaction (in words) [1] | Stability towards neutrophil elastase (in words) [4] | Susceptibility to proteolytic degradation by pepsin (in words) [5] | also measured
1 | CC[C@H](C)[C@H](NC(=O)[C@H](Cc1c[nH]c2ccccc12)NC(=O)[C@H](CCC(=O)O)NC(=O)[C@H](CCCCN)NC(=O)[C@H](CC(=O)O)NC(=O)COCCOCCNC(=O)CCCC[C@@H]1SC[C@@H]2NC(=O)N[C@@H]21)C(=O)N[C@@H](CC(C)C)C(=O)N[C@@H](CCC(N)=O)C(=O)N[C@@H](CCCCN)C(=O)N[C@H](C(=O)N[C@@H](Cc1ccc(O)cc1)C(=O)N[C@@H](CCC(=O)O)C(=O)N[C@H](C(=O)N[C@@H](CCSC)C(=O)N[C@@H](CCCNC(=N)N)C(=O)N[C@@H](CC(C)C)C(=O)N[C@@H](CC(C)C)C(=O)N[C@@H](CC(=O)O)C(=O)N[C@@H](CCC(=O)O)C(=O)N[C@@H](CC(C)C)C(N)=O)[C@@H](C)CC)[C@@H](C)CC [LW25.5] (HELM PEPTIDE1{[O=C1N[C@H]2[C@H](CS[C@H]2CCCCC(=O)[*:2])N1].[O=C(COCCOCCN[*:1])[*:2]].D.K.E.W.I.L.Q.K.I.Y.E.I.M.R.L.L.D.E.L.[am]}$$$$V2.0) | completely inactive |  |  | 
2 | Biotin-Aoa-[^3 CEWILQKIYEIMRLLDELGHAEASMRVSDLIYEFMKKC]-NH2 |  |  |  | not cleaved [2]: still largely intact after 60 min exposure to the enzyme; not cleaved [3]: largely stable towards pepsin for at least 60 min
3 | Biotin-Aoa-DKEWILQKIYEIMRLLDELGHAEASMRVSDLIYEF-NH2 |  |  |  | cleaved bond [2]: A-S, 60 min; also recorded: S-M, 60 min; cleaved bond [3]: L31-I32, 60 min
4 | CC[C@H](C)[C@H](NC(=O)[C@H](CC(C)C)NC(=O)[C@H](CC(=O)O)NC(=O)[C@H](CO)NC(=O)[C@@H](NC(=O)[C@H](CCCNC(=N)N)NC(=O)[C@H](CCSC)NC(=O)[C@H](CO)NC(=O)[C@H](C)NC(=O)[C@H](CCC(=O)O)NC(=O)[C@H](C)NC(=O)[C@H](Cc1c[nH]cn1)NC(=O)CNC(=O)COCCOCCNC(=O)CCCC[C@@H]1SC[C@@H]2NC(=O)N[C@@H]21)C(C)C)C(=O)N[C@@H](Cc1ccc(O)cc1)C(=O)N[C@@H](CCC(=O)O)C(=O)N[C@@H](Cc1ccccc1)C(=O)N[C@@H](CCSC)C(=O)N[C@@H](CCCCN)C(=O)N[C@@H](CCCCN)C(=O)NCC(N)=O [LW25.6] (HELM PEPTIDE1{[O=C1N[C@H]2[C@H](CS[C@H]2CCCCC(=O)[*:2])N1].[O=C(COCCOCCN[*:1])[*:2]].G.H.A.E.A.S.M.R.V.S.D.L.I.Y.E.F.M.K.K.G.[am]}$$$$V2.0) | completely inactive |  |  | 
5 | CC[C@H](C)[C@@H]1NC(=O)[C@H](CC(C)C)NC(=O)[C@H](CC(=O)O)NC(=O)[C@H](CO)NC(=O)[C@H](C(C)C)NC(=O)[C@H](CCCNC(=N)N)NC(=O)[C@H](CCSC)NC(=O)[C@H](CO)NC(=O)[C@H](C)NC(=O)[C@H](CCC(=O)O)NC(=O)[C@H](C)NC(=O)[C@H](Cc2c[nH]cn2)NC(=O)CNC(=O)[C@H](CC(C)C)NC(=O)[C@H](CCC(=O)O)NC(=O)[C@H](CC(=O)O)NC(=O)[C@H](CC(C)C)NC(=O)[C@H](CC(C)C)NC(=O)[C@H](CCCNC(=N)N)NC(=O)[C@H](CCSC)NC(=O)[C@H]([C@@H](C)CC)NC(=O)[C@H](CCC(=O)O)NC(=O)[C@H](Cc2ccc(O)cc2)NC(=O)[C@H]([C@@H](C)CC)NC(=O)[C@H](CCCCN)NC(=O)[C@H](CCC(N)=O)NC(=O)[C@H](CC(C)C)NC(=O)[C@H]([C@@H](C)CC)NC(=O)[C@H](Cc2c[nH]c3ccccc23)NC(=O)[C@H](CCC(=O)O)NC(=O)[C@@H](NC(=O)COCCOCCNC(=O)CCCC[C@@H]2SC[C@@H]3NC(=O)N[C@@H]32)CSSC[C@@H](C(N)=O)NC(=O)[C@H](CCCCN)NC(=O)[C@H](CCCCN)NC(=O)[C@H](CCSC)NC(=O)[C@H](Cc2ccccc2)NC(=O)[C@H](CCC(=O)O)NC(=O)[C@H](Cc2ccc(O)cc2)NC1=O [LW25.13] |  | still largely intact | largely stable | 
6 | CC[C@H](C)[C@H](NC(=O)[C@H](CC(C)C)NC(=O)[C@H](CC(=O)O)NC(=O)[C@H](CO)NC(=O)[C@@H](NC(=O)[C@H](CCCNC(=N)N)NC(=O)[C@H](CCSC)NC(=O)[C@H](CO)NC(=O)[C@H](C)NC(=O)[C@H](CCC(=O)O)NC(=O)[C@H](C)NC(=O)[C@H](Cc1c[nH]cn1)NC(=O)CNC(=O)[C@H](CC(C)C)NC(=O)[C@H](CCC(=O)O)NC(=O)[C@H](CC(=O)O)NC(=O)[C@H](CC(C)C)NC(=O)[C@H](CC(C)C)NC(=O)[C@H](CCCNC(=N)N)NC(=O)[C@H](CCSC)NC(=O)[C@@H](NC(=O)[C@H](CCC(=O)O)NC(=O)[C@H](Cc1ccc(O)cc1)NC(=O)[C@@H](NC(=O)[C@H](CCCCN)NC(=O)[C@H](CCC(N)=O)NC(=O)[C@H](CC(C)C)NC(=O)[C@@H](NC(=O)[C@H](Cc1c[nH]c2ccccc12)NC(=O)[C@H](CCC(=O)O)NC(=O)[C@H](CCCCN)NC(=O)[C@H](CC(=O)O)NC(=O)COCCOCCNC(=O)CCCC[C@@H]1SC[C@@H]2NC(=O)N[C@@H]21)[C@@H](C)CC)[C@@H](C)CC)[C@@H](C)CC)C(C)C)C(=O)N[C@@H](Cc1ccc(O)cc1)C(=O)N[C@@H](CCC(=O)O)C(=O)N[C@@H](Cc1ccccc1)C(N)=O [LW32.4] |  | rapidly hydrolyzed | hydrolyzed only at position L31 | 
